Experiments:
Assay in all cases: relative viability (nuclei count vs DMSO), 5 days (fraction); higher = more cells survive
NCI-H441 = test system: NCI-H441
Method in brief: (§1)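 Nuclei were stained with Hoechst during a one-step fixation (final 0.05% Triton X-100, 1% formaldehyde, 1 ug/ml Hoechst) carried out 5 days after dosing, then counted on 4× images. The cells, lung cancer lines in 1536-well plates, had been dosed by pin tool the day after seeding with one drug alone or a fixed anchor-drug dose plus five library-drug doses (not always all listed) in √10 steps. Relative viability is the nuclei count in treated wells divided by that in vehicle wells, and each value is the median of duplicate plates.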

NCI-H322M = test system: NCI-H322M
Method in brief: as §1

NCI-H1993 = test system: NCI-H1993
Method in brief: as §1

CAL-12T = test system: CAL-12T
Method in brief: as §1

UMC-11 = test system: UMC-11
Method in brief: as §1

NCI-H358 = test system: NCI-H358
Method in brief: as §1

COR-L 105 = test system: COR-L 105
Method in brief: as §1

ABC-1 = test system: ABC-1
Method in brief: as §1

EPLC-272H = test system: EPLC-272H
Method in brief: as §1

NCI-H2085 = test system: NCI-H2085
Method in brief: as §1

NCI-H522 = test system: NCI-H522
Method in brief: as §1

EMC-BAC-2 = test system: EMC-BAC-2
Method in brief: as §1

HCC-78 = test system: HCC-78
Method in brief: as §1

HOP-62 = test system: HOP-62
Method in brief: as §1

NCI-H1666 = test system: NCI-H1666
Method in brief: as §1

NCI-H2023 = test system: NCI-H2023
Method in brief: as §1

ChaGo-K-1 = test system: ChaGo-K-1
Method in brief: as §1

HCC-15 = test system: HCC-15
Method in brief: as §1

LXF-289 = test system: LXF-289
Method in brief: as §1

NCI-H2126 = test system: NCI-H2126
Method in brief: as §1

NCI-H1915 = test system: NCI-H1915
Method in brief: as §1

NCI-H1755 = test system: NCI-H1755
Method in brief: as §1

NCI-H1975 = test system: NCI-H1975
Method in brief: as §1

NCI-H3122 = test system: NCI-H3122
Method in brief: as §1

Clc1ccc(Nc2nnc(Cc3ccncc3)c3ccccc23)cc1 [Vatalanib] + O=C(c1cc(Cc2n[nH]c(=O)c3ccccc23)ccc1F)N1CCN(C(=O)C2CC2)CC1 [Olaparib] (partner 8 µM)
relative viability (NCI-H441; first compound 0.04 µM): 0.546
relative viability (NCI-H441; first compound 0.1265 µM): 0.62
relative viability (NCI-H441; first compound 0.4 µM): 0.51
relative viability (NCI-H441; first compound 1.265 µM): 0.561
relative viability (NCI-H441; first compound 4 µM): 0.553
relative viability (NCI-H322M; first compound 0.04 µM): 0.452
relative viability (NCI-H322M; first compound 0.1265 µM): 0.662
relative viability (NCI-H322M; first compound 0.4 µM): 0.781
relative viability (NCI-H322M; first compound 4 µM): 0.778
relative viability (NCI-H1993; first compound 0.04 µM): 0.587
relative viability (NCI-H1993; first compound 0.1265 µM): 1.08
relative viability (NCI-H1993; first compound 0.4 µM): 0.879
relative viability (NCI-H1993; first compound 1.265 µM): 1.11
relative viability (NCI-H1993; first compound 4 µM): 1.01
relative viability (CAL-12T; first compound 0.04 µM): 0.692
relative viability (CAL-12T; first compound 0.1265 µM): 0.645
relative viability (CAL-12T; first compound 0.4 µM): 0.773
relative viability (CAL-12T; first compound 1.265 µM): 0.697
relative viability (CAL-12T; first compound 4 µM): 0.672
relative viability (UMC-11; first compound 0.04 µM): 0.331
relative viability (UMC-11; first compound 0.1265 µM): 0.39
relative viability (UMC-11; first compound 0.4 µM): 0.318
relative viability (UMC-11; first compound 1.265 µM): 0.468
relative viability (UMC-11; first compound 4 µM): 0.297
relative viability (NCI-H358; first compound 0.04 µM): 0.566
relative viability (NCI-H358; first compound 0.1265 µM): 0.548
relative viability (NCI-H358; first compound 0.4 µM): 0.639
relative viability (NCI-H358; first compound 1.265 µM): 0.769
relative viability (NCI-H358; first compound 4 µM): 0.562
relative viability (COR-L 105; first compound 0.04 µM): 0.719
relative viability (COR-L 105; first compound 0.1265 µM): 0.762
relative viability (COR-L 105; first compound 0.4 µM): 0.738
relative viability (COR-L 105; first compound 1.265 µM): 0.645
relative viability (COR-L 105; first compound 4 µM): 0.703
relative viability (ABC-1; first compound 0.04 µM): 0.642
relative viability (ABC-1; first compound 0.1265 µM): 0.689
relative viability (ABC-1; first compound 0.4 µM): 0.421
relative viability (ABC-1; first compound 4 µM): 0.869
relative viability (EPLC-272H; first compound 0.04 µM): 0.944
relative viability (EPLC-272H; first compound 0.1265 µM): 0.79
relative viability (EPLC-272H; first compound 0.4 µM): 1.04
relative viability (EPLC-272H; first compound 1.265 µM): 0.688
relative viability (EPLC-272H; first compound 4 µM): 0.86
relative viability (NCI-H2085; first compound 0.04 µM): 0.839
relative viability (NCI-H2085; first compound 0.1265 µM): 0.81
relative viability (NCI-H2085; first compound 0.4 µM): 0.812
relative viability (NCI-H2085; first compound 1.265 µM): 0.795
relative viability (NCI-H2085; first compound 4 µM): 0.727
relative viability (NCI-H522; first compound 0.04 µM): 0.756
relative viability (NCI-H522; first compound 0.1265 µM): 0.705
relative viability (NCI-H522; first compound 0.4 µM): 0.746
relative viability (NCI-H522; first compound 1.265 µM): 0.565
relative viability (NCI-H522; first compound 4 µM): 0.774
relative viability (EMC-BAC-2; first compound 0.04 µM): 0.476
relative viability (EMC-BAC-2; first compound 0.1265 µM): 0.476
relative viability (EMC-BAC-2; first compound 0.4 µM): 0.497
relative viability (EMC-BAC-2; first compound 4 µM): 0.492
relative viability (HCC-78; first compound 0.04 µM): 0.899
relative viability (HCC-78; first compound 0.1265 µM): 0.865
relative viability (HCC-78; first compound 0.4 µM): 0.761
relative viability (HCC-78; first compound 1.265 µM): 0.823
relative viability (HCC-78; first compound 4 µM): 0.775
relative viability (HOP-62; first compound 0.04 µM): 0.385
relative viability (HOP-62; first compound 0.1265 µM): 0.389
relative viability (HOP-62; first compound 0.4 µM): 0.523
relative viability (HOP-62; first compound 1.265 µM): 0.41
relative viability (HOP-62; first compound 4 µM): 0.419
relative viability (NCI-H1666; first compound 0.04 µM): 0.72
relative viability (NCI-H1666; first compound 0.1265 µM): 0.832
relative viability (NCI-H1666; first compound 0.4 µM): 0.804
relative viability (NCI-H1666; first compound 1.265 µM): 0.798
relative viability (NCI-H1666; first compound 4 µM): 0.752
relative viability (NCI-H2023; first compound 0.04 µM): 0.403
relative viability (NCI-H2023; first compound 0.1265 µM): 0.444
relative viability (NCI-H2023; first compound 0.4 µM): 0.447
relative viability (NCI-H2023; first compound 1.265 µM): 0.48
relative viability (NCI-H2023; first compound 4 µM): 0.422
relative viability (ChaGo-K-1; first compound 0.04 µM): 0.412
relative viability (ChaGo-K-1; first compound 0.1265 µM): 0.457
relative viability (ChaGo-K-1; first compound 0.4 µM): 0.466
relative viability (ChaGo-K-1; first compound 1.265 µM): 0.42
relative viability (ChaGo-K-1; first compound 4 µM): 0.433
relative viability (HCC-15; first compound 0.04 µM): 0.795
relative viability (HCC-15; first compound 0.1265 µM): 0.723
relative viability (HCC-15; first compound 0.4 µM): 0.781
relative viability (HCC-15; first compound 1.265 µM): 0.684
relative viability (HCC-15; first compound 4 µM): 0.696
relative viability (LXF-289; first compound 0.04 µM): 1.04
relative viability (LXF-289; first compound 0.1265 µM): 1
relative viability (LXF-289; first compound 0.4 µM): 1.13
relative viability (LXF-289; first compound 1.265 µM): 0.975
relative viability (LXF-289; first compound 4 µM): 1.03
relative viability (NCI-H2126; first compound 0.04 µM): 0.888
relative viability (NCI-H2126; first compound 0.1265 µM): 0.926
relative viability (NCI-H2126; first compound 0.4 µM): 0.938
relative viability (NCI-H2126; first compound 1.265 µM): 0.85
relative viability (NCI-H2126; first compound 4 µM): 0.966
relative viability (NCI-H1915; first compound 0.04 µM): 0.258
relative viability (NCI-H1915; first compound 0.1265 µM): 0.265
relative viability (NCI-H1915; first compound 0.4 µM): 0.275
relative viability (NCI-H1915; first compound 1.265 µM): 0.233
relative viability (NCI-H1915; first compound 4 µM): 0.253
relative viability (NCI-H1755; first compound 0.04 µM): 0.773
relative viability (NCI-H1755; first compound 0.1265 µM): 0.847
relative viability (NCI-H1755; first compound 0.4 µM): 0.878
relative viability (NCI-H1755; first compound 1.265 µM): 0.901
relative viability (NCI-H1755; first compound 4 µM): 0.838
relative viability (NCI-H1975; first compound 0.04 µM): 0.84
relative viability (NCI-H1975; first compound 0.1265 µM): 0.727
relative viability (NCI-H1975; first compound 0.4 µM): 0.729
relative viability (NCI-H1975; first compound 1.265 µM): 0.709
relative viability (NCI-H1975; first compound 4 µM): 0.695
relative viability (NCI-H3122; first compound 0.04 µM): 0.593
relative viability (NCI-H3122; first compound 0.1265 µM): 0.668
relative viability (NCI-H3122; first compound 0.4 µM): 0.689
relative viability (NCI-H3122; first compound 1.265 µM): 0.592
relative viability (NCI-H3122; first compound 4 µM): 0.598
